target: T1, TXA2 receptors (Homo sapiens, UniProt P21731); assay: human platelet binding assay ([125I]PTA-OH as receptor ligand); conditions: 50% inhibition of specific [^125 I]PTA-OH binding, human platelets
T1 construct: endogenous in cells; host or cells: human platelets
T1 sequence (P21731 1-343): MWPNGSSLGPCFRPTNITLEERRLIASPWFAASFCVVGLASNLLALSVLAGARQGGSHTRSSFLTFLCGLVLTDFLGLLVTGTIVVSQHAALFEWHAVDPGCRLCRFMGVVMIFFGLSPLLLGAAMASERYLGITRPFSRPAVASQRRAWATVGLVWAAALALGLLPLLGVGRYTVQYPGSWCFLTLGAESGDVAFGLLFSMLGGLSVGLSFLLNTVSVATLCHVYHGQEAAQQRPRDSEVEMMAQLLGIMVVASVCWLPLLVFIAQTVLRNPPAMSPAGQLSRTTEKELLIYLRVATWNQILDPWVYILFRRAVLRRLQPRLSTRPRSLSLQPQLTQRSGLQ
Protocol: As indicated above, compounds of the formula (I) have biological activity that is indicative of an ability to antagonise TXA2 receptors.
The platelet binding assay used was essentially the method described by Mais et al. J. Pharm. Exp. Ther., 1985, 235(3), 729-734 where [^125 I]PTA-OH was used as the receptor ligand.
The IC50 values represent the concentration which produces a 50% inhibition of specific [^125 I]PTA-OH binding.
The compounds of Examples 1 and 5 were tested in the human platelet binding assay.

SMILES	IC50
Cc1cc(NS(=O)(=O)c2ccccc2)cnc1CCCC(=O)O [Example 3, 4-(5-Benzenesulphonamido-3-methylpyrid-2-yl)butanoic acid]	2600 nM
O=C(O)CCCc1ccc(NS(=O)(=O)c2ccc(Br)cc2)cn1 [Example 13, 4-[5-(4-Bromobenzenesulphonamido)pyrid-2-yl]butanoic acid]	200 nM
O=C(O)CCCc1ccc(NS(=O)(=O)c2ccc(Cl)cc2)cn1 [Example 2, 4-[5-(4-Chlorobenzenesulphonamido)pyrid-2-yl]-butanoic acid]	360 nM
O=C(O)CCCCc1ccc(NS(=O)(=O)c2ccc(Cl)cc2)cn1 [Example 6, 5-[5-(4-Chlorobenzenesulphonamido)pyrid-2-yl]pentanoic acid]	1000 nM
Cc1ccc(S(=O)(=O)Nc2ccc(CCCC(=O)O)nc2)cc1 [Example 14, 4-[5-(4-Methylbenzenesulphonamido)pyrid-2-yl]butanoic acid]	600 nM
O=C(O)CCCc1ccc(NS(=O)(=O)c2cccc(C(F)(F)F)c2)cn1 [Example 12, 4-[5-(3-Trifluoromethylbenzenesulphonamido)-pyrid-2-yl]butanoic acid]	16000 nM
COc1ccc(S(=O)(=O)Nc2ccc(CCCC(=O)O)nc2)cc1 [Example 11, 4-[5-(4-Methoxybenzenesulphonamido)pyrid-2-yl]butanoic acid]	5200 nM
O=C(O)CCc1ccc(NS(=O)(=O)c2ccc(Cl)cc2)cn1 [Example 8, 3-[5-(4-Chlorobenzenesulphonamido)pyrid-2-yl]propionic acid]	251000 nM

Continued by falling IC50, values first:

IC50	SMILES
102000 nM	O=C(O)CCCc1ncccc1NS(=O)(=O)c1ccccc1 [Example 4, 4-(3-Benzenesulphonamidopyrid-2-yl)butanoic acid]
28000 nM	O=C(O)CCCc1ccc(S(=O)(=O)Nc2ccccc2)cn1 [Example 10, 4-[5-(Phenylsulphamoyl)pyrid-2-yl)butanoic acid]
21000 nM	O=C(O)CCCc1ccc(S(=O)(=O)Nc2ccc(Cl)cc2)cn1 [Example 9, 4-[5-(4-Chlorophenylsulphamoyl)pyrid-2-yl]-butanoic acid]
4000 nM	O=C(O)CCCCc1ccc(NS(=O)(=O)c2ccccc2)cn1 [Example 7, 5-[5-(Benzenesulphonamido)pyrid-2-yl]pentanoic acid]
2100 nM	O=C(O)CCCc1ccc(NS(=O)(=O)c2ccc(Cl)c(Cl)c2)cn1 [Example 15, 4-[5-(3,4-Dichlorobenzenesulphonamido)pyrid-2-yl]butanoic acid]
1300 nM	O=C(O)CCCc1ccc(NS(=O)(=O)c2ccccc2)cn1 [Example 1, 4-(5-Benzenesulphonamidopyrid-2-yl)butanoic acid]
1200 nM	O=C(O)CCCc1ccc(NS(=O)(=O)c2cccc(Cl)c2)cn1 [Example 5, 4-[5-(3-Chlorobenzenesulphonamido)pyrid-2-yl]butanoic acid]
